Values quoted from earlier work as cited in US6764693B1, “Free radical quenching composition and a method to increase intracellular and/or extracellular antioxidants” (Amaox, Ltd., priority 1992, dated 2004).

Assays:
[1] = test system: HIV in U1 cell line (promonocytes); conditions: increasing thiol concentration in culture medium of U1 cells
[2] = pH of 1.0
[3] = oxidants from activated leukocytes
[4] = antioxidant placed in liposomes
T lymphocytes = conditions: activated leukocytes combined with T lymphocytes
[5] = separate experimental protocols
[6] = free GSH, intravenous

Compound	effect on HIV [1]	effect on lipid peroxidation of liposomes [3]	mortality [5]	further results
CC(=O)N[C@@H](CS)C(=O)O [NAC, N-acetyl-cysteine]	suppression of viral assembly, HIV reverse transcriptase production and viral replication	–	–	rate constant K2 against the hydroxyl radical [2]: 1.36×10^10
beta carotene [beta-carotene]	–	conferred protection against lipid peroxidation	–	effect on lipid peroxidation in liposomes exposed to uv [4]: inhibited
catalase	–	inhibited peroxidation	–	suppression of lymphocytic function (T lymphocytes): no suppression of lymphocytic function
N[C@@H](CCC(=O)N[C@@H](CS)C(=O)NCC(=O)O)C(=O)O [glutathione]	suppression of viral assembly, HIV reverse transcriptase production and viral replication	–	100%	rate constant K2 against the hydroxyl radical [2]: 8.8×10^9; t½ [6]: approximately 1.6 minutes
glutathione ester [GSE]	suppression of viral assembly, HIV reverse transcriptase production and viral replication	–	–	–
Cc1c(C)c2c(c(C)c1O)CCC(C)(CCCC(C)CCCC(C)CCCC(C)C)O2 (stereo not drawn) [vitamin E, alpha-tocopherol]	–	conferred protection against lipid peroxidation	46%	effect on lipid peroxidation in liposomes exposed to uv [4]: inhibited
CC(C)(C)/[N+]([O-])=C/c1ccccc1 [PBN, phenyltertylnitrone]	–	–	42%	–
